This assay deals with human GPR17 short isoform (Homo sapiens, UniProt Q13304). As to the kind of experiment: GPR17 cAMP assay (antagonist mode, TR-FRET cAMP detection). The format is cell-based. As to conditions: CHO-K1 cells stably expressing human GPR17 short isoform; with EC80 concentration of agonist MDL29,951, IBMX 0.5mM, forskolin 15µM; normalized to reference antagonist; read-out: hGPR17 cAMP IC50. On the procedure:
CHO-K1 cells stably expressing vector containing untagged human GPR17 short isoform (Roche) were cultured at 37°C / 5% CO2 in DMEM (Dulbecco's Modified Eagle Medium):F-12 (1:1) supplemented with 10% foetal bovine serum and 400 µg/ml Geneticin.
Changes in intracellular cyclic adenosine monophosphate (cAMP) levels were quantified using the Nano-TRF Detection Assay kit (Roche Diagnostics, Cat. No. 05214386001). This assay allows for direct cAMP quantification in a homogeneous solution. cAMP is detected based on time-resolved fluorescence energy transfer (TR-FRET) and competitive binding of ruthenylated cAMP and endogenous cAMP to an anti-cAMP monoclonal antibody labeled with AlexaFluor-700. The Ruthenium complex serves as the FRET donor and transfers energy to AlexaFluor-700. The FRET signal is inversely proportional to the cAMP concentration.
CHO-GPR17S cells were detached with Accutase and resuspended in assay buffer consisting of Hank's Balanced Salt Solution (HBSS), 10mM HEPES (4-(2-hydroxyethyl) piperazine-1-ethanesulfonic acid solution) and 0.1% bovine serum albumin (pH 7.4). The cells were seeded in black 384-well plates (Corning) at a density of 10'000 cells / 20µl assay buffer until the addition of compounds.
Test antagonist compounds were serially diluted in dimethyl sulfoxide (DMSO) and spotted in 384-well plates. The compounds were then diluted in HBSS buffer supplemented with an EC80 concentration of MDL29,951 (3-(2-Carboxy-4,6-dichloroindol-3-yl)propionic acid) (GPR17 agonist) plus 3-Isobutyl-1-methylxanthine (IBMX) (0.5mM final concentration) and added to the cells at room temperature. Forskolin (15µM final concentration) was added 5 minutes after the test compounds and the cells were incubated at room temperature for 30 minutes. The assay was stopped by adding cAMP detection mix (containing detergents for cell lysis) for 90 minutes at room temperature.
Cellular cAMP was measured using a Paradigm reader (Molecular Devices). The raw data was used to calculate the FRET signal based on the assay's P-factor as per cAMP kit instructions. The data was normalized to the maximal activity of a reference antagonist and dose response curves were fitted to the percent activity of the test compounds using a sigmoidal dose response model (Genedata Screener).
Results in the hGPR17 cAMP assay are provided for compounds of formula I in Table 1 Table 1: […]
For orientation: Changes in cAMP serve as a functional read-out for many G protein-coupled receptors.
human GPR17 short isoform, sequence (Q13304 29-367): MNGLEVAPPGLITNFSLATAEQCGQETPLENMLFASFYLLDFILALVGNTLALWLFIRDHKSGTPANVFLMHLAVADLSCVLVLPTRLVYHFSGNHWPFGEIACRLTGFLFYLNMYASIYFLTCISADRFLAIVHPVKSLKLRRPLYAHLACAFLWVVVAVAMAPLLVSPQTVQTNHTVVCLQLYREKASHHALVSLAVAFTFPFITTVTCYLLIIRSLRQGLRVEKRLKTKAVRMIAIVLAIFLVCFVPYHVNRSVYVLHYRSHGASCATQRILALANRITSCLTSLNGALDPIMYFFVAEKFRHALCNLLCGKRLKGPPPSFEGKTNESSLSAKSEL
As for `COc1nc(NS(=O)(=O)c2c[nH]c3c(-n4ccc(F)n4)c(Cl)ccc23)nc(OC)c1CC(F)F` [Example 55, 6-chloro-N-[5-(2,2-difluoroethyl)-4,6-dimethoxy-pyrimidin-2-yl]-7-(3-fluoropyrazol-1-yl)-1H-indole-3-sulfonamide], the IC50 is 25 nM.

On to `COc1nc(NS(=O)(=O)c2c[nH]c3c(-n4ccc(F)n4)c(Cl)ccc23)nc(OC)c1OCCF` [Example 56, 6-chloro-N-[5-(2-fluoroethoxy)-4,6-dimethoxy-pyrimidin-2-yl]-7-(3-fluoropyrazol-1-yl)-1H-indole-3-sulfonamide], for which the concentration for half-maximal inhibition (IC50) is 49 nM. Turning to `COc1nc(NS(=O)(=O)c2c[nH]c3c(-n4nccn4)c(Cl)ccc23)nc(OC)c1OC(F)(F)CF` [Example 57, 6-chloro-N-[4,6-dimethoxy-5-(1,1,2-trifluoroethoxy)pyrimidin-2-yl]-7-(triazol-2-yl)-1H-indole-3-sulfonamide], the IC50 came to 85 nM. For `COc1nc(NS(=O)(=O)c2c[nH]c3c(-n4nccn4)c(Cl)ccc23)nc(OC)c1OC(C)(C)CF` [Example 58, 6-chloro-N-[5-(2-fluoro-1,1-dimethyl-ethoxy)-4,6-dimethoxy-pyrimidin-2-yl]-7-(triazol-2-yl)-1H-indole-3-sulfonamide] the value was 1270 nM; for `[2H]C([2H])(Oc1c(OC)nc(NS(=O)(=O)c2c[nH]c3c(-n4nccn4)c(Cl)ccc23)nc1OC)C(F)F` [Example 59, 6-chloro-N-[5-(1,1-dideuterio-2,2-difluoro-ethoxy)-4,6-dimethoxy-pyrimidin-2-yl]-7-(triazol-2-yl)-1H-indole-3-sulfonamide], 74 nM. `COc1nc(NS(=O)(=O)c2c[nH]c3c(-n4nccn4)c(Cl)ccc23)nc(OC)c1OCC#N` [Example 60, 6-chloro-N-[5-(cyanomethoxy)-4,6-dimethoxy-pyrimidin-2-yl]-7-(triazol-2-yl)-1H-indole-3-sulfonamide]: the half-maximal inhibitory concentration (IC50) came to 49 nM. For `COc1nc(NS(=O)(=O)c2c[nH]c3c(-n4nccn4)c(Cl)ccc23)nc(OC)c1CCC#N` [Example 61, 6-chloro-N-[5-(2-cyanoethyl)-4,6-dimethoxy-pyrimidin-2-yl]-7-(triazol-2-yl)-1H-indole-3-sulfonamide] the value was 29 nM; for `COc1nc(NS(=O)(=O)c2c[nH]c3c(-n4nccn4)c(Cl)ccc23)nc(OC)c1C` [Example 62, 6-chloro-N-(4,6-dimethoxy-5-methyl-pyrimidin-2-yl)-7-(triazol-2-yl)-1H-indole-3-sulfonamide], 19 nM; for `COc1nc(NS(=O)(=O)c2c[nH]c3c(-n4nccn4)c(Cl)ccc23)nc(OC)c1Br` [Example 63, N-(5-bromo-4,6-dimethoxy-pyrimidin-2-yl)-6-chloro-7-(triazol-2-yl)-1H-indole-3-sulfonamide], 37 nM. Consider `COc1nc(NS(=O)(=O)c2c[nH]c3c(-n4nccn4)c(Cl)c(F)cc23)nc(OC)c1OCC(F)F` [Example 64, 6-chloro-N-[5-(2,2-difluoroethoxy)-4,6-dimethoxy-pyrimidin-2-yl]-5-fluoro-7-(triazol-2-yl)-1H-indole-3-sulfonamide], for which the 50% inhibitory concentration (IC50) was found to be 75 nM.

For `COc1nc(NS(=O)(=O)c2c[nH]c3c(-n4cccn4)c(Cl)ccc23)nc(OC)c1OCC(F)F` [Example 65, 6-chloro-N-[5-(2,2-difluoroethoxy)-4,6-dimethoxy-pyrimidin-2-yl]-7-pyrazol-1-yl-1H-indole-3-sulfonamide], the IC50 was determined as 22 nM. For `COc1nc(NS(=O)(=O)c2c[nH]c3c(-n4cccn4)c(Cl)ccc23)nc(OC)c1OC(F)F` [Example 66, 6-chloro-N-[5-(difluoromethoxy)-4,6-dimethoxy-pyrimidin-2-yl]-7-pyrazol-1-yl-1H-indole-3-sulfonamide] the value was 21 nM.

Turning to `COc1nc(NS(=O)(=O)c2c[nH]c3c(-n4cccn4)c(Cl)ccc23)nc(OC)c1OCCF` [Example 67, 6-chloro-N-[5-(2-fluoroethoxy)-4,6-dimethoxy-pyrimidin-2-yl]-7-pyrazol-1-yl-1H-indole-3-sulfonamide], the concentration for half-maximal inhibition (IC50) was found to be 31 nM. Under `[2H]C([2H])(F)C([2H])([2H])Oc1c(OC)nc(NS(=O)(=O)c2c[nH]c3c(-n4cccn4)c(Cl)ccc23)nc1OC` [Example 68, 6-chloro-N-[4,6-dimethoxy-5-(1,1,2,2-tetradeuterio-2-fluoro-ethoxy)pyrimidin-2-yl]-7-pyrazol-1-yl-1H-indole-3-sulfonamide] stands 36 nM. For `COc1nc(NS(=O)(=O)c2c[nH]c3c(-n4cccn4)c(Cl)ccc23)nc(OC)c1OCC#N` [Example 69, 6-chloro-N-[5-(cyanomethoxy)-4,6-dimethoxy-pyrimidin-2-yl]-7-pyrazol-1-yl-1H-indole-3-sulfonamide] the value was 52 nM; for `COc1nc(NS(=O)(=O)c2c[nH]c3c(-n4cccn4)c(Cl)ccc23)nc(OC)c1CCC#N` [Example 70, 6-chloro-N-[5-(2-cyanoethyl)-4,6-dimethoxy-pyrimidin-2-yl]-7-pyrazol-1-yl-1H-indole-3-sulfonamide], 37 nM; for `COc1nc(NS(=O)(=O)c2c[nH]c3c(-n4cccn4)c(Cl)ccc23)ncc1CC(F)F` [Example 71, 6-chloro-N-[5-(2,2-difluoroethyl)-4-methoxy-pyrimidin-2-yl]-7-pyrazol-1-yl-1H-indole-3-sulfonamide], 63 nM. Under `[2H]C([2H])(c1cnc(NS(=O)(=O)c2c[nH]c3c(-n4cccn4)c(Cl)ccc23)nc1OC)C(F)F` [Example 72, 6-chloro-N-[5-(1,1-dideuterio-2,2-difluoroethyl)-4-methoxy-pyrimidin-2-yl]-7-pyrazol-1-yl-1H-indole-3-sulfonamide] stands 41 nM. `COc1nc(NS(=O)(=O)c2c[nH]c3c(-n4cccn4)c(Cl)ccc23)nc(OC)c1C1CC1C#N` (centres unmarked) [Example 73, 6-chloro-N-[5-(2-cyanocyclopropyl)-4,6-dimethoxy-pyrimidin-2-yl]-7-pyrazol-1-yl-1H-indole-3-sulfonamide]: the IC50 was 41 nM.

In the case of `COc1nc(NS(=O)(=O)c2c[nH]c3c(-n4cccn4)c(C)ccc23)nc(OC)c1OCC(F)F` [Example 74, N-[5-(2,2-difluoroethoxy)-4,6-dimethoxy-pyrimidin-2-yl]-6-methyl-7-pyrazol-1-yl-1H-indole-3-sulfonamide], the half-inhibitory concentration (IC50) turned out to be 59 nM.

Take `COc1nc(NS(=O)(=O)c2c[nH]c3c(-n4cccn4)c(Br)ccc23)nc(OC)c1OCC(F)F` [Example 75, 6-bromo-N-[5-(2,2-difluoroethoxy)-4,6-dimethoxy-pyrimidin-2-yl]-7-pyrazol-1-yl-1H-indole-3-sulfonamide]: the 50% inhibitory concentration (IC50) worked out at 42 nM.

Consider `COc1nc(NS(=O)(=O)c2c[nH]c3c(-n4cccn4)c(C)ccc23)nc(OC)c1OC(F)F` [Example 76, N-[5-(difluoromethoxy)-4,6-dimethoxy-pyrimidin-2-yl]-6-methyl-7-pyrazol-1-yl-1H-indole-3-sulfonamide], for which the concentration for half-maximal inhibition (IC50) stood at 75 nM. For `COc1nc(NS(=O)(=O)c2c[nH]c3c(-n4cccn4)c(Br)ccc23)nc(OC)c1OC(F)F` [Example 77, 6-bromo-N-[5-(difluoromethoxy)-4,6-dimethoxy-pyrimidin-2-yl]-7-pyrazol-1-yl-1H-indole-3-sulfonamide] the value was 27 nM.

A word on the IC50: it is the concentration at which inhibition is half-maximal.

The record behind these values is patent EP4562004B1, “NOVEL 7-SUBSTITUTED INDOLE SULFONAMIDE DERIVATIVES” (F. Hoffmann-La Roche AG, priority 2022, dated 2024).
